Measurements reported in ChEMBL document CHEMBL1201862, “PubChem BioAssay data set” (2004).
Blank lines part the entries; values can stand above or below the molecule they belong to. Activity calls are given as the source filed them.

How the values were obtained:
[1] = general mammalian cell viability loss – inhibitor set, cherry-pick, set 2, cytotoxicity control for miR-122 modulator project, dose response (AID 720697); assay type: functional, cell-based
[2] = HGIII-sPLA2 enzyme inhibition potency – biochemical, QFRET, IC50, dose response (AID 743457);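 also: green fluorescence rise as the enzyme cleaves BODIPY PC-A2 in liposomes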
[3] = target: T1, Rac GTPase-activating protein 1 (Homo sapiens, UniProt Q9H0H5); assay: blockers of MgcRacGAP-driven Rac1 GTP hydrolysis – biochemical, ADP Hunter fluorescence, primary and confirmatory, confirmation (AID 624330); assay type: functional
T1 sequence (Q9H0H5 whole entry): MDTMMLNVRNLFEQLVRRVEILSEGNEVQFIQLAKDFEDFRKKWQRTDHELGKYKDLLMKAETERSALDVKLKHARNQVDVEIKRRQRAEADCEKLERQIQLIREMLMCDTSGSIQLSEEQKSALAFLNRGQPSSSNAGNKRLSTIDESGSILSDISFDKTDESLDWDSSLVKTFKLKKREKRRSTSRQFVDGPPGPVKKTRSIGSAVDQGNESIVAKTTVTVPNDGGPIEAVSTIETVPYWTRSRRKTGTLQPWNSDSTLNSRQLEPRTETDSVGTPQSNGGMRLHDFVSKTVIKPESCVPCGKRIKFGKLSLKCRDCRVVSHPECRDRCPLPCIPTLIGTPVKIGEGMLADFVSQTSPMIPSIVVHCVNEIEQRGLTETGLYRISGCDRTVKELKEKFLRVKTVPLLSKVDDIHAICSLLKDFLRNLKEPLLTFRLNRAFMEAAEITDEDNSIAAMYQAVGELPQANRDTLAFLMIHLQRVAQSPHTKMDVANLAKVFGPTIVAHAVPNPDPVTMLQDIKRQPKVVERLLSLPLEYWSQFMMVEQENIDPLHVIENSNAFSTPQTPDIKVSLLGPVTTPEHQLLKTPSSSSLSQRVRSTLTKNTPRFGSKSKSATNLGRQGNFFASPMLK

[4] = target: FAD-linked sulfhydryl oxidase ALR (Homo sapiens, UniProt P55789); assay: ALR-catalysed DTT oxidation blockers – biochemical, H2O2 detection, luminescence, cherry-pick, dose response (AID 493248)
Cytochrome P450 2C9 = Cytochrome P450 2C9 (Homo sapiens, UniProt P11712)
Cytochrome P450 1A2 = target: T2, Cytochrome P450 1A2 (Homo sapiens, UniProt P05177);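 also: PubChem cytochrome P450 panel assay, CYP1A2 panel member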
T2 sequence (P05177 whole entry): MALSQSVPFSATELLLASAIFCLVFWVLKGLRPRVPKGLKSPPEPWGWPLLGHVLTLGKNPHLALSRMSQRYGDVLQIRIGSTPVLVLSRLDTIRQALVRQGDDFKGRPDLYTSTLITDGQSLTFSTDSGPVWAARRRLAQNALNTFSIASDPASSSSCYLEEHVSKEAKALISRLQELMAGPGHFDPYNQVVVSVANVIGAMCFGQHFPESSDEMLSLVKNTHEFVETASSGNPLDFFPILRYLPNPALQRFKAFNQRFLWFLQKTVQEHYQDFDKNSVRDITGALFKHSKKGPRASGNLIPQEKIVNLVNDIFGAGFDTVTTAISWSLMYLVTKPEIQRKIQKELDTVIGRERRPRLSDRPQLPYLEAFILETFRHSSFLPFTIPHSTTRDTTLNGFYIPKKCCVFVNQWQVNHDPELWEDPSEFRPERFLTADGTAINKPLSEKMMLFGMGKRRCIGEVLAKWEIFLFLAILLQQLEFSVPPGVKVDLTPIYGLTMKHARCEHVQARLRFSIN

Cytochrome P450 3A4 = Cytochrome P450 3A4 (Homo sapiens, UniProt P08684);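 also: CYP3A4 tested as one member of a cytochrome P450 panel screen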
fMet-Leu-Phe receptor = fMet-Leu-Phe receptor (Homo sapiens, UniProt P21462); assay: formyl peptide receptor binders – dose response (AID 519); assay type: functional
Cytochrome P450 2C19 = Cytochrome P450 2C19 (Homo sapiens, UniProt P33261); assay: Cytochrome panel assay with activity outcomes. Panel member name: p450-cyp2c19 Compounds with AC50 equal or less than 10 uM are considered active; assay type: functional; conditions: read-out: AC50
[5] = target: T3, Carboxy-terminal domain RNA polymerase II polypeptide A small phosphatase 1 (Homo sapiens, UniProt Q9GZU7); assay: CTDSP1 inhibitors, concentration-response, biochemical, absorbance readout, ultra-high-throughput screen actives (AID 540297); assay type: functional
T3 sequence (Q9GZU7 whole entry): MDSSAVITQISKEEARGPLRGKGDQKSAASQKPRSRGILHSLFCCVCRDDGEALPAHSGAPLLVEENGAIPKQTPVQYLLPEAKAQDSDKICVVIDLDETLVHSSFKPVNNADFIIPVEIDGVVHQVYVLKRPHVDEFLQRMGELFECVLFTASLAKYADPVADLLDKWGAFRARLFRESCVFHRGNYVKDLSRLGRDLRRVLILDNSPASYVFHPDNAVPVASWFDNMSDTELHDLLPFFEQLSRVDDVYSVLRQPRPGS

[6] = target: Nuclear receptor subfamily 5 group A member 2 (Homo sapiens, UniProt O00482); assay type: functional, cell-based;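 also: HEK293T cells transfected with LRH-1 and a StAR promoter luciferase reporter; potency for inhibitors that lower LRH-1 driven reporter light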
Steroidogenic factor 1 = Steroidogenic factor 1 (Homo sapiens, UniProt Q13285); assay: Counterscreen for inverse agonists of the liver receptor homolog-1 (LRH-1; NR5A2): Luminescence-based cell-based high throughput dose response assay to identify inverse agonists of the Steroidogenic Factor 1 Nuclear Receptor (SF1; NR5A1).; assay type: functional
Albumin = Albumin (Bos taurus, UniProt P02769); assay: Counterscreen for inhibitors of T-cell receptor (TCR)-CD3 interaction: Fluorescence-based biochemical high throughput dose response assay to identify inhibitors of T-cell receptor (TCR)-CD3 interaction using a TAMRA-labeled BSA probe.; assay type: functional
[7] = target: T4, Low molecular weight phosphotyrosine protein phosphatase (Homo sapiens, UniProt P24666); assay type: functional; conditions: read-out: IC50_Mean;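 also: Dose-response confirmation assay measuring inhibition of LMPTP enzyme activity by fluorescence intensity read-out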
T4 sequence (P24666 whole entry): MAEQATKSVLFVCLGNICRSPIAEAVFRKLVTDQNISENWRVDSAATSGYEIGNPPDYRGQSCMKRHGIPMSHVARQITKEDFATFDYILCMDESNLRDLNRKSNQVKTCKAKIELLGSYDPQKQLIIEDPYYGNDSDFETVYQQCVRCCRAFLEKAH

[8] = target: T5, Oxysterols receptor LXR-beta (Homo sapiens, UniProt P55055); assay type: functional, cell-based;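 also: agonist activity at LXR measured by a cell-based luminescence readout across a dose range, run as a counterscreen for daf-12 agonists; HEK293 cells with Gal4-LXR fusion and GAL4-driven luciferase reporter; potency for activation of Gal4-LXR reporter so compounds are agonists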
T5 sequence (P55055 whole entry): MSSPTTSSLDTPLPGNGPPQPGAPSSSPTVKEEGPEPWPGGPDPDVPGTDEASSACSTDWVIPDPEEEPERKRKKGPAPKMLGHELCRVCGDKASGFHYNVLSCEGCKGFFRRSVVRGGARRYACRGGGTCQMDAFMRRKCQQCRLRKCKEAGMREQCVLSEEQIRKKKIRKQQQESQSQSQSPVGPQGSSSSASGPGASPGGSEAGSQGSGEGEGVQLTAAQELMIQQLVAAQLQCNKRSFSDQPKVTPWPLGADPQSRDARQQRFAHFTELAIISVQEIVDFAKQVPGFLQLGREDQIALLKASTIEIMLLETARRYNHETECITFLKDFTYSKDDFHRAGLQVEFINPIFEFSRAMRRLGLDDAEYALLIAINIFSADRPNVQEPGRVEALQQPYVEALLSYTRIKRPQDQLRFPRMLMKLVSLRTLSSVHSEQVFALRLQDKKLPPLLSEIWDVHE

[9] = target: T6, DNA repair protein RAD52 homolog (Homo sapiens, UniProt P43351); assay type: functional, biochemical
T6 sequence (P43351 whole entry): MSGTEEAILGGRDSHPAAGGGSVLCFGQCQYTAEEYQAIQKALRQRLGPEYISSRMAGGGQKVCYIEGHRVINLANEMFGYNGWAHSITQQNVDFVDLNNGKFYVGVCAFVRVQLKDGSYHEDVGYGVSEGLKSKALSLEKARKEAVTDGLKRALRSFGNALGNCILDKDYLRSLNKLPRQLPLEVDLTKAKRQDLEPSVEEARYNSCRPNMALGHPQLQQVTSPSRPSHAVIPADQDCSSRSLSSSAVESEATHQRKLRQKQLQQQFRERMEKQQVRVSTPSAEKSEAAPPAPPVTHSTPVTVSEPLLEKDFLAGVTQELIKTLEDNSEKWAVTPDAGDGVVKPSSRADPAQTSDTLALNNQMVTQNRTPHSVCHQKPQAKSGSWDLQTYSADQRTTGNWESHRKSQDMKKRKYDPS

[10] = target: T7, DNA repair and recombination protein RAD54-like (Homo sapiens, UniProt Q92698); assay: RAD54 Holliday junction migration blockers – biochemical, fluorescence, cherry-picked samples, dose series, confirmation (AID 651657); assay type: functional
T7 sequence (Q92698 whole entry): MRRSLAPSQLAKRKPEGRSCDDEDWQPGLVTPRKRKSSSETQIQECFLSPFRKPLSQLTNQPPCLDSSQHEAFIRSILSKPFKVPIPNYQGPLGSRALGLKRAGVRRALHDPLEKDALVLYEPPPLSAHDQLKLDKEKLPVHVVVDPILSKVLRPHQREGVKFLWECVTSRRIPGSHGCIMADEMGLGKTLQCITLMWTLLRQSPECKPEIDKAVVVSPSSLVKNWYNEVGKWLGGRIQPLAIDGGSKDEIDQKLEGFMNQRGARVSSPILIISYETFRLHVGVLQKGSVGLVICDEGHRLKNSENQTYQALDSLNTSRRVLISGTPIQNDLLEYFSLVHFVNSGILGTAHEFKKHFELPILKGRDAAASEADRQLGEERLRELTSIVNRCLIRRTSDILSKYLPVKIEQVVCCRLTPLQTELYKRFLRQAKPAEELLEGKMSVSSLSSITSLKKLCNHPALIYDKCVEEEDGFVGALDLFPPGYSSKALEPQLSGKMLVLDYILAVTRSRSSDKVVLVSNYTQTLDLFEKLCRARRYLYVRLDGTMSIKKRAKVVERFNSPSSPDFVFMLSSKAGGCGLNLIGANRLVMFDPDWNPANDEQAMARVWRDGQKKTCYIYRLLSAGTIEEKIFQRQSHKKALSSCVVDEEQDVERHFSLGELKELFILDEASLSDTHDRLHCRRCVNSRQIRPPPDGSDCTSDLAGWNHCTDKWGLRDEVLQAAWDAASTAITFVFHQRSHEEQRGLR

cells [11] = assay type: functional, cell-based
cells [12] = assay type: functional, cell-based; remark: listed apart in the source
[13] = target: T8, Trace amine-associated receptor 1 (Homo sapiens, UniProt Q96RJ0); assay: Counterscreen for agonists of the human trace amine associated receptor 1 (hTAAR1): Fluorescence-based cell-based high throughput dose response assay to identify hTAAR1 agonist that also desensitize TAAR1 receptor response.; assay type: functional
T8 sequence (Q96RJ0 whole entry): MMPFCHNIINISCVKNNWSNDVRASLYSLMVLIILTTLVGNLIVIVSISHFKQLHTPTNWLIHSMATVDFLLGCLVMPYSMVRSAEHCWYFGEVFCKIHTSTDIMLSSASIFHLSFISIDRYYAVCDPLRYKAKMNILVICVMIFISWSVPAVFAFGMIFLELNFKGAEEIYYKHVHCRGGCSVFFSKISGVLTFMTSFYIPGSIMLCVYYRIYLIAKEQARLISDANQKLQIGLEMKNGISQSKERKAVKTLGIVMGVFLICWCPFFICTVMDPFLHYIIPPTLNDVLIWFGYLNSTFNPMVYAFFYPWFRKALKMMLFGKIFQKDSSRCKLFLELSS

[14] = target: T8, Trace amine-associated receptor 1; assay: Fluorescence-based cell-based high throughput dose response assay to identify agonists of the human trace amine associated receptor 1 (TAAR1).; assay type: functional
[15] = viability loss in CEM21 cells – cell-based, CellTiter-Glo luminescence, cherry-picked, cytotoxicity control for viral fusion inhibitor project, dose response (AID 652042); assay type: functional;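 also: potency for signal decrease meaning cytotoxicity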
[16] = blockers of HIV-1 envelope-mediated cell-cell fusion – cherry-pick, dose response (AID 652057); assay type: functional, cell-based
[17] = T. cruzi growth inhibition in host cells, dose response, cell-based, plate reader, dry powder, set 2 (AID 652275); assay type: functional
[18] = MITF Orthogonal Assay: SK-MEL-5 CTG Assay Measured in Cell-Based System Using Plate Reader - 2084-02_Inhibitor_Dose_DryPowder_Activity_Set7.; assay type: functional
[19] = MITF: Counter assay: A375 proliferation Measured in Cell-Based System Using Plate Reader - 2084-03_Inhibitor_Dose_DryPowder_Activity_Set8.; assay type: functional; conditions: A-375

Chain of fMet-Leu-Phe receptor (P21462 whole entry): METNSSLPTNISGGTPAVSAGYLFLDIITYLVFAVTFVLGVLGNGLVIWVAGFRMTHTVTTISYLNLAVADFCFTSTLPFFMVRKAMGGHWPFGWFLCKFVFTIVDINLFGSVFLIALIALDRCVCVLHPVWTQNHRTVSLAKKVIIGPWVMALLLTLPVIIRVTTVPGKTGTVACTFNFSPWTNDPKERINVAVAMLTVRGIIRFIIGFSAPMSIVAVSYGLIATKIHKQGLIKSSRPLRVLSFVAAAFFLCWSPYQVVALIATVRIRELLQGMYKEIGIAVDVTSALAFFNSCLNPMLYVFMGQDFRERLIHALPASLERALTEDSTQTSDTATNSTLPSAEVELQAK
Chain of Nuclear receptor subfamily 5 group A member 2 (O00482 whole entry): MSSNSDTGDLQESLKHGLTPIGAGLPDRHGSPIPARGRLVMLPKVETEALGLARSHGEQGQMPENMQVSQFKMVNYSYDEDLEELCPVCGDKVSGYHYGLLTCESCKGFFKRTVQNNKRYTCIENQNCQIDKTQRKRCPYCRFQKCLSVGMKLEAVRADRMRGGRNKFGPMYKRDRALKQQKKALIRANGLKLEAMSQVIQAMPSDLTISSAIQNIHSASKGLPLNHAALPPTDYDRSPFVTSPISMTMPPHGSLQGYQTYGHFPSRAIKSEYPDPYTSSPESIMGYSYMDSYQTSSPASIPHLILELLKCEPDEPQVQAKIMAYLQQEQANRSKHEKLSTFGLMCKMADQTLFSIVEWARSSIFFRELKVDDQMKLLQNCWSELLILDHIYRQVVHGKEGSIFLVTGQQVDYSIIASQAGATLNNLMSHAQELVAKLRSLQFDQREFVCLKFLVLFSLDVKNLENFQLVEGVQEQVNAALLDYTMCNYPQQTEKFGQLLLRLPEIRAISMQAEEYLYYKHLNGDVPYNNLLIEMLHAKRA
Chain of Cytochrome P450 2C19 (P33261 whole entry, the tested form may be a part): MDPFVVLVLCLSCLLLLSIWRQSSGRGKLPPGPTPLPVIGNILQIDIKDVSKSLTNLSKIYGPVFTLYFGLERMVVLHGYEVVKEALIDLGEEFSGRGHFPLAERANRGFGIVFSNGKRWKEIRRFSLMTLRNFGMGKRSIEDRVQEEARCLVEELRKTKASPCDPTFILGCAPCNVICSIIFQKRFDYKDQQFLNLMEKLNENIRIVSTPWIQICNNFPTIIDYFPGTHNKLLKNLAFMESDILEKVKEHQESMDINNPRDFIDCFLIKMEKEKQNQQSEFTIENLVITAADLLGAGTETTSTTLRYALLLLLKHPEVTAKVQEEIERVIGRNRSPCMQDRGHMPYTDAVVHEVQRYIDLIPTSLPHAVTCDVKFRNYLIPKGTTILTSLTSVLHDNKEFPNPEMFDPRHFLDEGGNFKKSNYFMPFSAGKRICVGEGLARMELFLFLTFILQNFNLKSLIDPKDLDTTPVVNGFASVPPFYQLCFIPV
Chain of Cytochrome P450 3A4 (P08684 whole entry): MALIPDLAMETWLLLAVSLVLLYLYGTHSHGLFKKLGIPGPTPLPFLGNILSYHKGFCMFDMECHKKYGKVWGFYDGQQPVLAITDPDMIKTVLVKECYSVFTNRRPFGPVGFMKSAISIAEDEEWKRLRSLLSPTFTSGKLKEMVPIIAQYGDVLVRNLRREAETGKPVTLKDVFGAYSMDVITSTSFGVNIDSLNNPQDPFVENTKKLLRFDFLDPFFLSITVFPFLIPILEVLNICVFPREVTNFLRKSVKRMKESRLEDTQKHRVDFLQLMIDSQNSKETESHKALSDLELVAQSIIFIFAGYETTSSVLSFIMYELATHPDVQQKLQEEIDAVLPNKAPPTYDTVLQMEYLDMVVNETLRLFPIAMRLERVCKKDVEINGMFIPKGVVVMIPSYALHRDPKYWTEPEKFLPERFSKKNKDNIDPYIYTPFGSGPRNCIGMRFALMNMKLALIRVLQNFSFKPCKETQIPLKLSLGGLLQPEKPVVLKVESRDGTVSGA
Chain of Cytochrome P450 2C9 (P11712 whole entry): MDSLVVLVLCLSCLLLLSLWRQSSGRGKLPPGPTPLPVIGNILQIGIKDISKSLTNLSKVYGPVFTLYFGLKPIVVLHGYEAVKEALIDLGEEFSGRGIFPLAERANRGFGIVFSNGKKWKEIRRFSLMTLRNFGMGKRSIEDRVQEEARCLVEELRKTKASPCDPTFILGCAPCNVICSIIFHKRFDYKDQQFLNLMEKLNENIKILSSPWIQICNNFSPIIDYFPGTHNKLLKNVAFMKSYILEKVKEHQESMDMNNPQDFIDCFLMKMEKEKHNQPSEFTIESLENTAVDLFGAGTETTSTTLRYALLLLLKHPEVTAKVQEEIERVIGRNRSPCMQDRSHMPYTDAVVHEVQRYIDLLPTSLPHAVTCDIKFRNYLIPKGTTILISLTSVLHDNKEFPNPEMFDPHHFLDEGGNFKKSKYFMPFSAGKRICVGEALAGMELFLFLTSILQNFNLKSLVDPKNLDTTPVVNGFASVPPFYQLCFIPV
Chain of Albumin (P02769 whole entry): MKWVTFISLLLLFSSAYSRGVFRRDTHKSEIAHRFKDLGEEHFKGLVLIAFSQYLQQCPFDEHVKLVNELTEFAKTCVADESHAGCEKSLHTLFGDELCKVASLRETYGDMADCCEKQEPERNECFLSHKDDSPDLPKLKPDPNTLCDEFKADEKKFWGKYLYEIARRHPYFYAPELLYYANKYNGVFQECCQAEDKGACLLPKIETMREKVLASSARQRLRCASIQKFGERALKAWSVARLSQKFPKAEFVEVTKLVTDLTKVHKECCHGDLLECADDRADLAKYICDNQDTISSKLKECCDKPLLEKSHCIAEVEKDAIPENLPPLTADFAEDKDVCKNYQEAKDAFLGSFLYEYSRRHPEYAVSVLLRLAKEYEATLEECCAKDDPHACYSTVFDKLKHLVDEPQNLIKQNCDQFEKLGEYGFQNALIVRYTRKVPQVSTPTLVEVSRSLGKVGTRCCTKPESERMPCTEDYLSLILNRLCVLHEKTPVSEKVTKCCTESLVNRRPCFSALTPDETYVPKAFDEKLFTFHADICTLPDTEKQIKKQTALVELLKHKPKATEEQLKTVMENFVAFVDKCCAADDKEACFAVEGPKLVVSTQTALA
Chain of Steroidogenic factor 1 (Q13285 whole entry): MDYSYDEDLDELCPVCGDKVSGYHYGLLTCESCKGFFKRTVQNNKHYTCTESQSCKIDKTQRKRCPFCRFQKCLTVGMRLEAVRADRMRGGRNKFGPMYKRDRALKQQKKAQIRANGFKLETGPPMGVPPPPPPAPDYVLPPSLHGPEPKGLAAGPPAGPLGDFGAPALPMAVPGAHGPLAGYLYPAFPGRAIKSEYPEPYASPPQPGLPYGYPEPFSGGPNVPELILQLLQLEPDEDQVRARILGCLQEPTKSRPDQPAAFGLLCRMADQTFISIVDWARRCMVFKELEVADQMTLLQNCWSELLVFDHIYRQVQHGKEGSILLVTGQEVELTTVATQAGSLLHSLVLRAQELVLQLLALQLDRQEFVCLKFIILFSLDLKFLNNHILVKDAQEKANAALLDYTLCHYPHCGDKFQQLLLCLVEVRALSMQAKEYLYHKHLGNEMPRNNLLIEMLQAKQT
Chain of FAD-linked sulfhydryl oxidase ALR (P55789 whole entry): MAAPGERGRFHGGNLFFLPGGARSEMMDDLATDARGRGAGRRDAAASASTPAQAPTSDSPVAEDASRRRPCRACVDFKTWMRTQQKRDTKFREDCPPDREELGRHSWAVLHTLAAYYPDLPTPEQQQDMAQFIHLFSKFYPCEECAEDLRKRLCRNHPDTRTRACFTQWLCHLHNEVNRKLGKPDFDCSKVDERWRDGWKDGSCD

Structure (SMILES): CCOc1ccc(C(CCc2ccccc2)NC(=O)c2ccccc2F)cc1OCC (stereo not drawn)
- AC50 [1]: 4.56 µM (active)

- IC50 [2]: 100 µM (inactive)
- IC50 [3]: 34 µM (active)
- AC50 [4]: 0.42 µM (active)
Structure (SMILES): O=C(Nc1ccc(N2CCCCCC2)cc1)c1ccc[nH]1

- AC50 (Cytochrome P450 2C9): 25.1 µM (inconclusive)
- AC50 (Cytochrome P450 1A2): 17.8 µM (inconclusive)
- AC50 (Cytochrome P450 3A4): 25.1 µM (inconclusive)
- Ki (fMet-Leu-Phe receptor): 27 µM (inactive)
- AC50 (Cytochrome P450 2C19): 14.1 µM (inconclusive)
Structure (SMILES): COc1cc(C2C(C(=O)c3cccs3)=C(O)C(=O)N2Cc2ccco2)cc(OC)c1OC (stereo not drawn)

- IC50 [5]: 4.21 µM (active)
- IC50 [6]: 20.2 µM (inactive)
- IC50 (Steroidogenic factor 1): 13 µM (inactive)
- IC50 (Albumin): > 94.1 µM (inactive)
- IC50 [7]: 26 µM (inactive)
Structure (SMILES): COc1ccc(NC(=O)CSc2sc3c(O)cc(=O)[nH]c3c2C#N)c(OC)c1

- Ki (fMet-Leu-Phe receptor): > 66.7 µM (inactive)
Structure (SMILES): Cc1c(CNCc2cccs2)c(C(=O)O)c(C)n1Cc1ccccc1

- EC50 [8]: > 67.5 µM (inactive)
- AC50 [9]: 5.46 µM (active)
- AC50 [10]: 7.73 µM (active)
Structure (SMILES): COc1ccc2oc3cc(NCCN(C)C)ccc3c(=O)c2c1

Structure (SMILES): O=C(CC1CCCC1)N[C@H](C(=O)N1CCC[C@H]1C(=O)NCCc1ccccc1Cl)c1ccccc1
- IC50 (cells [11]): > 29.9 µM (inactive)
- EC50 (cells [12]): > 29.9 µM (inactive)
- IC50 [13]: 6.57 µM (active)
- EC50 [14]: 2.2 µM (active)

Structure (SMILES): COc1ccc2c3c([nH]c2c1)[C@H](CO)N(C(=O)Nc1cccc(F)c1)CC31CCN(S(=O)(=O)c2ccccc2)CC1
- AC50 [15]: 19.4 µM (active)
- AC50 [16]: 25.4 µM (active)

Structure (SMILES): CC(C)N1CC2(CN(Cc3ccccn3)C2)Oc2c(NC(=O)c3ccncc3)cccc2C1=O
- AC50 [17]: 1.37 µM (active)

Structure (SMILES): O=C1C=C(NC2CCCCC2)C(=O)c2ccccc21
- AC50 [18]: 18.9 µM (active)
- AC50 [19]: > 70 µM (inactive)

Structure (SMILES): COCCNC(=O)c1cc2c(c(-c3cccc(C#CCN(C)C)c3)n1)[C@@H](CCO)N([S+]([O-])C(C)(C)C)C2 (stereo partly drawn)
- AC50 [17]: 4.21 µM (active)
